Laboratory results from article PMC12903969, “Discovery of a Novel and Potent Kir4.1 Inhibitor as a Safe and Rapid‐Onset Antidepressant Agent in Mice” (Advanced Science, 2025).
“And” between values parts separate entries of the source, which are not always exact repeats. Equal values may be shown once.

How the values were obtained:
C57BL/6J mice after CSDS = test: CSDS model, forced swim test; assay type: in vivo; settings: single i.p. injection 10 mg kg−1
Description: The 10‐day CSDS paradigm was conducted as previously described.^[ [24] ^] CD‐1 aggressive mice were singly housed in defeat cages on one side of a perforated plexiglass partition 24 h before the defeat session. Experimental C57BL/6J mice were placed daily on the resident cage side of a novel CD‐1 aggressor that rapidly initiated a physical attack on the intruder. After 10‐min of social defeat, the intruder mice were housed on the opposite side of the partition within a shared home cage, experiencing further sensory contact for the subsequent 24 h. In contrast, control mice were maintained in their home cages and allowed to explore the empty defeat cages for 10 min each day.
Mice were placed individually in a transparent glass cylinder (25 cm high, 10 cm wide) filled with water (temperature 23–25 °C) to a depth of 10 cm, and prevented from making contact with the bottom. Mice behaviors were videotaped from each side. The observation period lasted for 6 min, with the final 4 min used to measure immobile behavior, which was processed using the AnyMaze Tracking System (Stoelting).

Kir4.1 cKO mice = test: NSFT in astrocyte-specific Kir4.1 cKO mice; assay type: in vivo; settings: 10 mg kg−1 i.p.
Text: Male C57BL/6J mice (6–10 weeks old) and male CD‐1 mice (4–6 months old) were purchased from Shanghai Shengchang Biotechnology Co., Ltd. Kcnj10 ^flox/flox mice were generated by the Cyagen Company (Suzhou, China). The Cas9 protein, two gRNAs (gRNA‐A1: […], gRNA‐A2: […]) and a donor vector containing two loxP sequences flanking exon 2 of mouse Kcnj10 were co‐injected into fertilized eggs. The embryos were transferred to recipient female mice to obtain F0 mice. The genotype was confirmed by PCR using two pairs of primers (F1: 5’‐[…]‐3’, R1: 5’‐[…]‐3’; F2: 5’‐[…]‐3’, R2: 5’‐[…]‐3’) and sequencing. The F0 founder mice were mated with C57BL/6J mice to produce heterozygous F1 offspring. Subsequent intercrosses of F1 heterozygous mice ultimately produced F2 homozygous mice with the Kcnj10 ^flox/flox genotype. Tamoxifen‐induced conditional transgenic mice with Kir4.1 deletion in astrocytes were generated by crossing Aldh1l1‐Cre/ERT2 mice with homozygous Kcnj10 ^flox/flox mice.^[ [32] ^] […]
The mice were individually housed in new cages and deprived of food for 24 h. […] The latency to start chewing food was recorded within 5 min. Immediately thereafter, the mice were placed back in their home cage with pre‐measured food, and the amount consumed in the next 5 min was used as a baseline to account for appetite changes that might affect the outcome.

mice [1] = test: Novel object recognition test (NOR); assay type: in vivo; settings: chronic 10 mg kg−1 per day
Description: This test was designed to assess memory in rodents. The mice were individually exposed to familiar and novel objects. The test consists of three phases: habituation, training, and retention. During habituation, each animal freely traversed an empty cubic arena (≈40 cm per side) for 5 min, then was returned to its home cage. In the subsequent training phase, two identical rectangular objects were fixed 10 cm from opposite walls, and the mouse, introduced with its snout directed toward the center of the distal wall, was allowed to investigate the objects for 5 min. One hour later, in the retention phase, one of the familiar objects was exchanged for a geometrically distinct but comparably sized novel object, and exploration was recorded for 5 min. The positions of familiar and novel objects were systematically randomized across trials to prevent spatial bias. Object exploration was quantified as the duration of direct nose/mouth orientation toward objects within ≤ 2 cm, excluding instances of turning away or sitting on objects. Recognition memory was assessed using the discrimination ratio, calculated as N/(N + F) × 100%, where N represents the exploration time of the novel object and F denotes the exploration time of the familiar object.

mice [2] = test: Shuttle box test (SBT); assay type: in vivo
Description: This test was designed to measure learning and memory function in rodents. The shuttle box consists of two compartments connected by a freely passable gate. The mice were allowed to explore the test chamber freely for 5 min before the test to eliminate exploratory reflexes. Each mouse was placed in one compartment of the shuttle box. The conditioning protocol began with a 5‐s conditioned stimulus presentation of light (200 lux) and auditory tone (100 dB, 1000 Hz), followed immediately by a 3‐s footshock (300 µA) unconditioned stimulus. Escape to the opposite compartment during the conditioned stimulus presentation was scored as an active avoidance response, whereas escape occurring only after shock onset was recorded as […]. […] Each test session consisted of 40 trials with 10‐s inter‐trial intervals, with the number of active avoidance responses systematically recorded.

mice [3] = test: Repeat-dose (14-day subacute) toxicity study
Description: The mice received daily treatments for 14 consecutive days and were monitored once daily for signs of toxicity. Individual body weights were measured daily throughout the observation period. At the end of this period, all mice were sacrificed and dissected. Macroscopic evaluation was performed, and the heart, liver, spleen, lungs, kidneys, and brain were excised for relative weight calculations. Representative organ fragments were embedded in formalin and paraffin, then fixed for subsequent histopathological analysis. Serum biochemical analyses included determination of creatinine, urea, alanine aminotransferase, and aspartate aminotransferase.

[4] = 100 mg/kg, 14-day, individual animals
[5] = organ weight index, 100 mpk, 14-day, individual animals, 100 mg/kg

`c1ccc2c(c1)oc1ccc(Nc3ccnc(NCCCN4CCOCC4)n3)cc12` [JX3212, N^4-(dibenzo[b,d]furan-2-yl)-N^2-(3-morpholinopropyl)pyrimidine-2,4-diamine] was tested, and the “CSDS: immobility in FST (in words)” value (C57BL/6J mice after CSDS) was “reduced immobility duration”, the “NSFT latency in Kir4.1 cKO mice vs vehicle (in words)” value (Kir4.1 cKO mice) was “comparable latencies” and the “NOR discrimination ratio vs vehicle (in words)” value (mice [1]) was “showed no effects”. For the same molecule, the “shuttle box active avoidance responses (in words)” value (mice [2]; chronic 10 mg kg−1 per day) was “no significant differences”, the “SBT active avoidance responses, single mice” value (mice [2]; chronic 10 mg/kg per day (Fig 5G)) was 22 and 29 and 31 and 32 and 21 and 24 and 28 and 25 and the “histomorphology of liver, spleen, kidneys, HE staining (in words)” value (mice [3]; 100 mg kg−1 i.p., 14 days) was “no pronounced pathological changes”. The “serum creatine level (in words)” value (mice [3]; 100 mg kg−1 i.p., 14 days) was “slight decrease in creatine levels”, the “mortality, body weight, organ-to-body weight ratio (in words)” value (mice [3]; 100 mg kg−1 i.p., 14 days, n = 6) was “No mortality or significant changes in body weight” and the ALT (mice [3]; [4]) was 24 and 28 and 22 and 33 and 30 and 36. For the same molecule, the AST (mice [3]; [4]) was 77 and 98 and 90 and 81, the Cr (mice [3]; [4]) was 23 and 24 and 31 and 22 and the Body weight (mice [3]; 100 mpk, day 1, individual animals) was 24.7 and 25 (2×) and 25.5. The Body weight (mice [3]; 100 mpk, day 2, individual animals) was 24.3 and 25 and 24.7 and 23.4 (2×) and 24.2, the Body weight (mice [3]; 100 mpk, day 3, individual animals) was 25 (2×) and 23.6 and 23.7 and 24.2 and 23.8 and the Body weight (mice [3]; 100 mpk, day 4, individual animals) was 23.4 and 25 and 24.7 and 25.4 and 24 (2×). The Body weight (mice [3]; 100 mpk, day 5, individual animals) was 25 and 23.3 and 24.7 (2×) and 25.4, the Body weight (mice [3]; 100 mpk, day 6, individual animals, in g (unit assumed)) was 24.7 and 23.4 and 25 and 25.8 and 24.4 and the Body weight (mice [3]; 100 mpk, day 7, individual animals, in g (unit assumed)) was 25.1 and 23.1 and 25.2 and 25.3 and 23.9 and 24.5. The Body weight (mice [3]; 100 mpk, day 8, individual animals) was 24.6 (2×) and 23.2 and 24 and 24.9 and 22.8, the Body weight (mice [3]; 100 mpk, day 9, individual animals) was 23.2 and 23 and 24.8 (2×) and 23.5 and 25 and the Body weight (mice [3]; 100 mpk, day 10, individual animals, in g (unit assumed)) was 23.6 and 22.9 and 24.4 and 24.1. For the same molecule, the Body weight (mice [3]; 100 mpk, day 11, individual animals, in g (unit assumed)) was 24.4 and 23.3 and 23.8, the Body weight (mice [3]; 100 mpk, day 12, individual animals, in g (unit assumed)) was 24.4 and 23.7 and 24.2 and 23.3 and the Body weight (mice [3]; 100 mpk, day 13, individual animals) was 24.3 and 24.1 (2×) and 23.6 and 25.7 and 23.4. The Body weight (mice [3]; 100 mpk, day 14, individual animals, in g (unit assumed)) was 24.1 and 23.8 and 26.2 and 24.4 and 22.9 and 24, the Brain (mice [3]; [5]) was 1.903 and 1.921 and 1.682 and 2.001 and 1.79 and 1.878 and the Heart (mice [3]; [5]) was 0.4606 and 0.4848 and 0.4887 and 0.4129 and 0.4371 and 0.4527. The Kidney (mice [3]; [5]) was 1.532 and 1.538 and 1.4509 and 1.426 and 1.403 and 1.554, the Liver (mice [3]; [5]) was 6.39 and 5.873 and 5.169 and 5.3375 and 6.082 and 6.251 and the Lung (mice [3]; [5]) was 0.6629 and 0.6646 and 0.5455 and 0.5464 and 0.7241 and 0.5883. For the same molecule, the Spleen (mice [3]; [5]) was 0.4787 and 0.4556 and 0.409 and 0.4522 and 0.473 and 0.3725.
